Key:
[1] = system: MDA-MB-468 cell line; experiment: Inhibition of proliferation of MDA-MB-468 cancer cells (Cell Titer-Glo); format: cell-based; conditions: Homo sapiens, MDA-MB-468, 72 hours
How it was run: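 Cells were grown in DMEM or RPMI, seeded at 2,000 cells/well and exposed to 11 threefold dilutions of compound (final 10 to 0.000169 μM) for 72 hours. Viability was read by Cell Titer-Glo luminescence after 10 min at room temperature, and GI50 was calculated from the luminescence data.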

[2] = target: LRRK2 (Homo sapiens, UniProt Q5S007); experiment: LRRK2 enzyme inhibition, ADP-Glo kinase assay; format: biochemical; set-up: purchased Invitrogen PR8604B; conditions: ATP 10 μM
How it was run: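 Purified human LRRK2 (25 ng) with 10 μM ATP and 0.2 μg substrate in 40 mM Tris-HCl pH 7.4, 20 mM MgCl2, 0.5 mg/mL BSA, 50 μM DTT, 2 h at 25° C. ADP-Glo luminescence; 12-point compound series from 50 μM final; IC50 relative to solvent control.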

[3] = target: LRRK2 (G2019S) (Homo sapiens, UniProt Q5S007, G2019S); experiment: LRRK2 G2019S enzyme inhibition, ADP-Glo kinase assay; format: biochemical; set-up: purchased SignalChem L10-12GG; conditions: ATP 25 μM
How it was run: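 Purified human LRRK2 G2019S (16 ng) with 25 μM ATP and 0.2 μg substrate, 2 h at 25° C. in Tris-HCl pH 7.4, MgCl2, BSA, DTT buffer; compounds at 12 final concentrations, 50 μM down to 0.000001024 μM. ADP-Glo luminescence versus solvent control gave IC50.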

[4] = system: IL-6; experiment: Inhibition of LPS-induced IL-6 secretion of THP-1 monocytes (ELISA); format: cell-based, human; conditions: Homo sapiens, THP-1; compound 0.5 μM, LPS 500 ng/mL, 24 hours; read-out: THP1/IL6 (% inhib)
How it was run: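 THP-1 monocytes grown 16 h at 37 °C, pretreated 1 h with compound at final 0.5 μM, then stimulated with LPS at final 500 ng/mL for 24 h. IL-6 and TNF-α in culture supernatant measured by ELISA (OD 450 nm).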

LRRK2, sequence (Q5S007 970-2527 limits assumed): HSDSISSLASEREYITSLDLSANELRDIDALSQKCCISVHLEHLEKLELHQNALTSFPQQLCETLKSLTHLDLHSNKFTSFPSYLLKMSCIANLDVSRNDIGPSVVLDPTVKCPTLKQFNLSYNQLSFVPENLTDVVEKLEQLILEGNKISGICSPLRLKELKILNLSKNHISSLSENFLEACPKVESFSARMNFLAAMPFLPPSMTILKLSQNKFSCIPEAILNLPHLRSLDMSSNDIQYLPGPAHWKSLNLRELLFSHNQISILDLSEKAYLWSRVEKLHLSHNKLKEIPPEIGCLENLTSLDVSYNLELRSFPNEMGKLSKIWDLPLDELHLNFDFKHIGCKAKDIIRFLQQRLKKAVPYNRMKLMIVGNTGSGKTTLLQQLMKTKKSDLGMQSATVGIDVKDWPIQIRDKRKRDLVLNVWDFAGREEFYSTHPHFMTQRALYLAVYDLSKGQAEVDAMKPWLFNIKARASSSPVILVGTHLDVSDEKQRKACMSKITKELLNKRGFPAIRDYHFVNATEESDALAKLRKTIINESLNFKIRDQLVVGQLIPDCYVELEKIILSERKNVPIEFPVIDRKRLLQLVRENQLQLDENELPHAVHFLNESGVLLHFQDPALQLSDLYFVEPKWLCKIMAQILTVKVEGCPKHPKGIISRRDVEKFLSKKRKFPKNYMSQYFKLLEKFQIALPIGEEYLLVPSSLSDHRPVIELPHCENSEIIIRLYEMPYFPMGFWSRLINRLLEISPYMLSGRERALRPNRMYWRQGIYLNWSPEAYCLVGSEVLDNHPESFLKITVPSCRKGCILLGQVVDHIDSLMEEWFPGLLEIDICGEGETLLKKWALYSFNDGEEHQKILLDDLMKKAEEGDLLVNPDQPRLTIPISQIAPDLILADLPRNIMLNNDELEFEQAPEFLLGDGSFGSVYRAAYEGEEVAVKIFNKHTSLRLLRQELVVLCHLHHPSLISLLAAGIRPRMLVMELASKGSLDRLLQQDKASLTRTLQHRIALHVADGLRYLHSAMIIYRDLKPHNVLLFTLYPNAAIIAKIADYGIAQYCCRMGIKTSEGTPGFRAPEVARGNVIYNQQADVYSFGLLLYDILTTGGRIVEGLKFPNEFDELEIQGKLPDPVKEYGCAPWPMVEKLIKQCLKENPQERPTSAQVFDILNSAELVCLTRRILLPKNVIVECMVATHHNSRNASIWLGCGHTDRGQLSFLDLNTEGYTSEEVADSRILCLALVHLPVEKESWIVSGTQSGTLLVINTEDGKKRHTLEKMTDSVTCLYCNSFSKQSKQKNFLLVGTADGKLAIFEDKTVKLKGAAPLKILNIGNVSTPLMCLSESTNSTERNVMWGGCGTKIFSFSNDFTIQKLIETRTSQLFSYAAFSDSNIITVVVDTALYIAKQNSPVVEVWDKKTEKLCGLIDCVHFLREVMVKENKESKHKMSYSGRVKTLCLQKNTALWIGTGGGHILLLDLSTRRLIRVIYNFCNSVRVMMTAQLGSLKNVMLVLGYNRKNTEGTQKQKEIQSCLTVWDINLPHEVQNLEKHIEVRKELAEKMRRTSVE
LRRK2 (G2019S), sequence (Q5S007 970-2527 G2019S limits assumed): as the sequence (Q5S007 970-2527 limits assumed) above, with G1050S counted along it

| Structure (SMILES) | GI50 [1] | IC50 [2] | IC50 [3] | inhibition at 0.5 µM [4] |
| --- | --- | --- | --- | --- |
| N#Cc1c[nH]c2nc(Nc3ccc(C(=O)N4CCOCC4)c4c3OCCO4)nc(NCC3CCCC3)c12 [Example 133, 4-((cyclopentylmethyl)amino)-2-((8-(morpholine-4-carbonyl)-2,3-dihydrobenzo[b][1,4]dioxin-5-yl)amino)-7H-pyrrolo[2,3-d]pyrimidine-5-carbonitrile] | 51 to 100 nM | < 100 nM |  |  |
| CCCNc1nc(Nc2ccc(C(=O)N3CCC(N4CCOCC4)CC3)c3c2OCCO3)nc2[nH]cc(C#N)c12 [Example 138, 2-((8-(4-morpholinopiperidine-1-carbonyl)-2,3-dihydrobenzo[b][1,4]dioxin-5-yl)amino)-4-(propylamino)-7H-pyrrolo[2,3-d]pyrimidine-5-carbonitrile] |  | < 100 nM | < 100 nM |  |
| CCCNc1nc(Nc2ccc(S(=O)(=O)N3CCC(N4CCOCC4)CC3)cc2OC)nc2[nH]cc(C(F)(F)F)c12 [Example 161, N^2-(2-methoxy-4-((4-morpholinopiperidin-1-yl)sulfonyl)phenyl)-N^4-propyl-5-(trifluoromethyl)-7H-pyrrolo[2,3-d]pyrimidine-2,4-diamine] |  | < 100 nM | 101 to 300 nM |  |
| O=C(c1ccc(Nc2nc(C3CC3)c3c(C(F)(F)F)c[nH]c3n2)c2c1OCCO2)N1CCC(N2CCOCC2)CC1 [Example 228, (8-((4-cyclopropyl-5-(trifluoromethyl)-7H-pyrrolo[2,3-d]pyrimidin-2-yl)amino)-2,3-dihydrobenzo[b][1,4]dioxin-5-yl)(4-morpholinopiperidin-1-yl)methanone] | 301 to 1000 nM | < 100 nM | < 100 nM |  |
| CNc1nc(Nc2ccc(C(=O)N3CC[C@H](N4CCOCC4)C3)c3c2OCC3)nc2[nH]cc(C(F)(F)F)c12 [Example 236, (S)-(7-((4-(methylamino)-5-(trifluoromethyl)-7H-pyrrolo[2,3-d]pyrimidin-2-yl)amino)-2,3-dihydrobenzofuran-4-yl)(3-morpholinopyrrolidin-1-yl)methanone] |  | < 100 nM | < 100 nM | 22.9% |
| CNc1nc(Nc2ccc(C(=O)N3CCC(N4CCOCC4)CC3)c3c2OCCO3)nc2[nH]cc(C(F)(F)F)c12 [Example 238, (8-((4-(methylamino)-5-(trifluoromethyl)-7H-pyrrolo[2,3-d]pyrimidin-2-yl)amino)-2,3-dihydrobenzo[b][1,4]dioxin-5-yl)(4-morpholinopiperidin-1-yl)methanone] |  | < 100 nM | < 100 nM |  |
| CCN1CCP(=O)(c2ccc(Nc3nc(C4CC4)c4c(C#N)c[nH]c4n3)c(OC)c2)CC1 [Example 261] | 301 to 1000 nM | < 100 nM |  |  |
| O=C(c1ccc(Nc2nc(NC3CC3)c3c(C(F)(F)F)c[nH]c3n2)c2c1OCCO2)N1CCN(C2COC2)CC1 [Example 405, (8-((4-(cyclo-propylamino)-5-(trifluoromethyl)-7H-pyrrolo[2,3-d]pyrimidin-2-yl)amino)-2,3-dihydrobenzo[b] [1,4]dioxin-5-yl) (4-(oxetan-3-yl)piperazin-1-yl)methanone] | 301 to 1000 nM | < 100 nM | < 100 nM |  |
| CNc1nc(Nc2ccc(P3(=O)CCN(C4CC4)CC3)cc2OC)nc2[nH]cc(C(F)(F)F)c12 [Example 411, 1-cyclopropyl-4-(3-methoxy-4-((4-(methylamino)-5-(trifluoromethyl)-7H-pyrrolo[2,3-d]pyrimidin-2-yl)amino)phenyl)-1,4-azaphosphinane-4-oxide] |  | < 100 nM |  |  |
| COc1cc(P2(=O)CCN(C3CC3)CC2)ccc1Nc1nc(NC2CCCC2)c2c(C(F)(F)F)c[nH]c2n1 [Example 413] |  |  | 301 to 1000 nM |  |
| COc1cc(P2(=O)CCN(C3CCOCC3)CC2)ccc1Nc1nc(NC2CC2)c2c(C(F)(F)F)c[nH]c2n1 [Example 435, 4-(4-((4-(cyclo-propylamino)-5-(trifluoromethyl)-7H-pyrrolo[2,3-d]pyrimidin-2-yl)amino)-3-methoxyphenyl)-1-(tetrahydro-2H-pyran-4-yl)-1,4-azaphosphinane 4-oxide] |  | < 100 nM |  | 22.2% |
| O=C(c1ccc(Nc2nc(NCC3CC3)c3c(C(F)(F)F)c[nH]c3n2)c2c1CCO2)N1CCC(N2CCOCC2)CC1 [Example 461, (7-((4-((cyclo-propylmeth-yl)amino)-5-(trifluoromethyl)-7H-pyrrolo[2,3-d]pyrimidin-2-yl)amino)-2,3-dihydrobenzo-furan-4-yl)(4-morpho-linopiperidin-1-yl)methanone] |  | < 100 nM | < 100 nM | 25.7% |
| CCNc1nc(Nc2ccc(C(=O)N3CC[C@H](N4CCOCC4)C3)c3c2OCC3)nc2[nH]cc(C(F)(F)F)c12 [Example 475, (S)-(7-((4-(ethylamino)-5-(trifluoromethyl)-7H-pyrrolo[2,3-d]pyrimidin-2-yl)amino)-2,3-dihydrobenzo-furan-4-yl)(3-morpholino-pyrrolidin-1-yl)methanone] |  | < 100 nM | < 100 nM | 42.5% |

Continued, in another order:

| GI50 [1] | IC50 [2] | IC50 [3] | Structure (SMILES) | inhibition at 0.5 µM [4] |
| --- | --- | --- | --- | --- |
|  |  | < 100 nM | CNc1nc(Nc2ccc(S(=O)(=O)N3CCC(N4CCOCC4)CC3)cc2OC)nc2[nH]cc(C(F)(F)F)c12 [Example 157, N^2-(2-methoxy-4-((4-morpholinopiperidin-1-yl)sulfonyl)phenyl)-N^4-methyl-5-(trifluoromethyl)-7H-pyrrolo[2,3-d]pyrimidine-2,4-diamine 2,2,2-trifluoroacetate] | 1.6% |
|  | < 100 nM | < 100 nM | CCNc1nc(Nc2ccc(S(=O)(=O)N3CCC(N4CCOCC4)CC3)cc2OC)nc2[nH]cc(C(F)(F)F)c12 [Example 158, N^4-ethyl-N^2-(2-methoxy-4-((4-morpholinopiperidin-1-yl)sulfonyl)phenyl)-5-(trifluoromethyl)-7H-pyrrolo[2,3-d]pyrimidine-2,4-diamine 2,2,2-trifluoroacetate] |  |
| 301 to 1000 nM | < 100 nM |  | N#Cc1c[nH]c2nc(Nc3ccc(C(=O)N4CCC(N5CCOCC5)CC4)c4c3OCCO4)nc(C3CC3)c12 [Example 221, 4-cyclopropyl-2-((8-(4-morpholinopiperidine-1-carbonyl)-2,3-dihydrobenzo[b][1,4]dioxin-5-yl)amino)-7H-pyrrolo[2,3-d]pyrimidine-5-carbonitrile] |  |
| 301 to 1000 nM | 101 to 300 nM |  | COc1cc(S(=O)(=O)N2CCOCC2)ccc1Nc1nc(C2CC2)c2c(C#N)c[nH]c2n1 [Example 223, 4-cyclopropyl-2-((2-methoxy-4-(morpholinosulfonyl)phenyl)amino)-7H-pyrrolo[2,3-d]pyrimidine-5-carbonitrile] |  |
| < 50 nM | < 100 nM |  | COc1cc(S(=O)(=O)N2CCC(N3CCOCC3)CC2)ccc1Nc1nc(C2CC2)c2c(C#N)c[nH]c2n1 [Example 224, 4-cyclopropyl-2-((2-methoxy-4-((4-morpholinopiperidin-1-yl)sulfonyl)phenyl)amino)-7H-pyrrolo[2,3-d]pyrimidine-5-carbonitrile] |  |
| 301 to 1000 nM | 101 to 300 nM | 101 to 300 nM | COc1cc(S(=O)(=O)N2CCC(N3CCOCC3)CC2)ccc1Nc1nc(C2CC2)c2c(C(F)(F)F)c[nH]c2n1 [Example 226] |  |
| 301 to 1000 nM |  | < 100 nM | CNc1nc(Nc2cc(F)c(S(=O)(=O)N3CCC(N4CCOCC4)CC3)cc2OC)nc2[nH]cc(C(F)(F)F)c12 [Example 231, N^2-(5-fluoro-2-methoxy-4-((4-morpholinopiperidin-1-yl)sulfonyl)phenyl)-N^4-methyl-5-(trifluoromethyl)-7H-pyrrolo[2,3-d]pyrimidine-2,4-diamine] |  |
| 301 to 1000 nM |  | < 100 nM | CCNc1nc(Nc2cc(F)c(S(=O)(=O)N3CCC(N4CCOCC4)CC3)cc2OC)nc2[nH]cc(C(F)(F)F)c12 [Example 232, N^4-ethyl-N^2-(5-fluoro-2-methoxy-4-((4-morpholinopiperidin-1-yl)sulfonyl)phenyl)-5-(trifluoromethyl)-7H-pyrrolo[2,3-d]pyrimidine-2,4-diamine] |  |
|  | < 100 nM | < 100 nM | CCNc1nc(Nc2ccc(C(=O)N3CCC(N4CCOCC4)CC3)c3c2OCC3)nc2[nH]cc(C#N)c12 [Example 347, 4-(ethylamino)-2-((4-(4-morpholino-piperidine-1-carbonyl)-2,3-dihydro-benzofuran-7-yl)amino)-7H-pyrrolo[2,3-d]pyrimidine-5-carbonitrile] | 14.1% |
| 101 to 300 nM |  | 301 to 1000 nM | O=C(c1ccc(Nc2nc(NC3CCCCC3)c3c(C(F)(F)F)c[nH]c3n2)c2c1OCCO2)N1CCN(C2COC2)CC1 [Example 415, (8-((4-(cyclo-hexylamino)-5-(trifluoromethyl)-7H-pyrrolo[2,3-d]pyrimidin-2-yl)amino)-2,3-dihydrobenzo[b] [1,4]dioxin-5-yl) (4-(oxetan-3-yl)piperazin-1-yl)methanone] |  |

From patent US20230066011A1, “PYRROLOPYRIMIDINE DERIVATIVE, AND PHARMACEUTICAL COMPOSITION FOR PREVENTING OR TREATING PROTEIN KINASE-RELATED DISEASE COMPRISING SAME AS ACTIVE INGREDIENT” (VORONOI CO., LTD., priority 2019, published 2023)
